Reference: patent US12398141B2 (SHANGHAI SYNERGY PHARMACEUTICAL SCIENCES CO., LTD, priority 2019, dated 2025)

Tests used:
Format in all cases: biochemical
JAK1 = JAK1 (Homo sapiens (Human), UniProt P23458); test: JAK1 LANCE Ultra kinase assay; details: for IC50: 38 uM ATP; for JAK2/JAK1: ratio of IC50 JAK2 to IC50 JAK1
Method: Inhibition test on activity of JAK kinase in vitro was carried out by the following methods.
JAK1 LANCE® Ultra assay, JAK2 LANCE® Ultra assay and JAK3 LANCE® Ultra assay were used to carry out the test separately, and kits of the above assays were supplied by PerkinElmer. […]
JAK1, JAK2 and JAK3 kinase, ATP and substrates were dissolved and diluted with buffers.
A test liquid was 2 nM Eu-W1024 anti-phosphotyrosine (PerkinElmer, AD0069). A stop buffer was 10 mM edetic acid (Intech, 1842C505).
2.5 μl of an 8-fold solution of the compound and 5 μl of a 4-fold solution of JAK1 or JAK2 or JAK3 kinase were added into a 384-well plate, respectively, and reacted for 10 minutes at room temperature. 2.5 μl of an 8-fold solution of ULight™-JAK-1 peptide/ATP was added and reacted for 90 minutes at room temperature. Finally, 5 μl of 4-fold edetic acid stop buffer and 5 μl of 4-fold test liquid of Eu-W1024 anti-phosphotyrosine were added and incubated for 60 minutes.
According to the formula: percentage of inhibition rate=(maximum value−transform value)/(maximum value−minimum value)×100, inhibition rate of each compound at various concentrations was calculated. The maximum value was the reference value of dimethyl sulfoxide added into the well plate, the minimum value was the blank value, and the transform value is the value obtained by the well of each compound. The IC50 values of the corresponding compounds were then obtained by fitting by using the XLFit fitting tool in excel.

JAK2 = JAK2 (Homo sapiens (Human), UniProt O60674); test: JAK2 LANCE Ultra kinase assay; details: 12 uM ATP
JAK3 = JAK3 (Homo sapiens (Human), UniProt P52333); test: JAK3 LANCE Ultra kinase assay; details: 4 uM ATP
JAK3, sequence (P52333 whole entry): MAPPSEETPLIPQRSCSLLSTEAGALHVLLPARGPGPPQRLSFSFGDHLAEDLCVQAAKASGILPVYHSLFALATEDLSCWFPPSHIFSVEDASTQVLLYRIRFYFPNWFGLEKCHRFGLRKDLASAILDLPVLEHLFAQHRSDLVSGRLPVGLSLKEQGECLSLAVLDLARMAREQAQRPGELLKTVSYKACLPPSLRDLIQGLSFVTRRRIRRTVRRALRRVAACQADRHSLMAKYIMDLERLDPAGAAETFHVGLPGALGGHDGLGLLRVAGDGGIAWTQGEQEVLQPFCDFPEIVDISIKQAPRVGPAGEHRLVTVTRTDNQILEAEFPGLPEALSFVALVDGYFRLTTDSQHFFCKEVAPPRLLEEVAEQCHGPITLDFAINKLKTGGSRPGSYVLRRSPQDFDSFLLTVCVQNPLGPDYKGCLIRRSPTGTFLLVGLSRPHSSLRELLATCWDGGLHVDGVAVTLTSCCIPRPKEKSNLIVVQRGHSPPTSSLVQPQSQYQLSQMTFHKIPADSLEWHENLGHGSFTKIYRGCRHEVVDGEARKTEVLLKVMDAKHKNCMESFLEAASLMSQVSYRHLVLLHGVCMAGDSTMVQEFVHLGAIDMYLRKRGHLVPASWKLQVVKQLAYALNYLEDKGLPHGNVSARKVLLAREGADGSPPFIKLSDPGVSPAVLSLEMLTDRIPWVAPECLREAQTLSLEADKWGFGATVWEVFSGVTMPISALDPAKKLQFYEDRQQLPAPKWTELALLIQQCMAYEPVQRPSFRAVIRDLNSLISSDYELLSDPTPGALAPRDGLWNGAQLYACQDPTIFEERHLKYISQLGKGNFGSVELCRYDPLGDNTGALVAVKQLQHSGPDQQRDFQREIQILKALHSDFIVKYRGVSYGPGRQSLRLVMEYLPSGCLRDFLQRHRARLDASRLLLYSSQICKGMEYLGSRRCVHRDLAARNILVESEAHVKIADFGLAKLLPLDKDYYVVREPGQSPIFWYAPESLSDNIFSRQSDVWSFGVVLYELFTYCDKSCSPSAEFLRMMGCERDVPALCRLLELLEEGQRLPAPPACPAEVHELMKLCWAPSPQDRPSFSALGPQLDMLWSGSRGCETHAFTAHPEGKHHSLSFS

JAK1, sequence (P23458 whole entry): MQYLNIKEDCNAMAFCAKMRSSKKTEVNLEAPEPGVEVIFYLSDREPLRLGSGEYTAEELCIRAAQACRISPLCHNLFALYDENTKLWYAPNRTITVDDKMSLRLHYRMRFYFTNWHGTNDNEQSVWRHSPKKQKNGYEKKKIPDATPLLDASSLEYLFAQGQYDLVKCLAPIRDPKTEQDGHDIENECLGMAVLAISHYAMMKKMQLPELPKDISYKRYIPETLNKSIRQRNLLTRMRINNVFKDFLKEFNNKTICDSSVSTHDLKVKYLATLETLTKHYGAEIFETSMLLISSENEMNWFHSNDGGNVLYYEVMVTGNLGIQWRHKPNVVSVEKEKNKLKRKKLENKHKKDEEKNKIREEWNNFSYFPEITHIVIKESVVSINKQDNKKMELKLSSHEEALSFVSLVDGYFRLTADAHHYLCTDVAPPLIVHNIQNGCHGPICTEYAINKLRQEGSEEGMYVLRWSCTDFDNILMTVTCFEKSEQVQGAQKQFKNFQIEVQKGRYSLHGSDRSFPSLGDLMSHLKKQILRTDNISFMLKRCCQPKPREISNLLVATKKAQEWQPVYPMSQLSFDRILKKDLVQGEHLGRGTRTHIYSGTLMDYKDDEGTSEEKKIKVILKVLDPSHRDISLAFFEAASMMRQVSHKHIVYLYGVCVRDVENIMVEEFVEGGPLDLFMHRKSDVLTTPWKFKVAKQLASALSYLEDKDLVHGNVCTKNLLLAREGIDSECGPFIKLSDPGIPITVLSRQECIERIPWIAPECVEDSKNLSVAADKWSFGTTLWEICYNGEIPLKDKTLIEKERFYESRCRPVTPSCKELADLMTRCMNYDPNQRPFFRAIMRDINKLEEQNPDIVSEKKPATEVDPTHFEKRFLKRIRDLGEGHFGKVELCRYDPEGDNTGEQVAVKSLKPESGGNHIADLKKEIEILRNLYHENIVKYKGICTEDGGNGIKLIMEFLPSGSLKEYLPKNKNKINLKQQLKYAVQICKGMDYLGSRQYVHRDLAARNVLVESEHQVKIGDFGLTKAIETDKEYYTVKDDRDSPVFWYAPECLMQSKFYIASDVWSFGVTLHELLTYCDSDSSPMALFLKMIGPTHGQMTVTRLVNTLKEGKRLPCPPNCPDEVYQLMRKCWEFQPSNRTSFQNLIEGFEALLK
JAK2, sequence (O60674 whole entry): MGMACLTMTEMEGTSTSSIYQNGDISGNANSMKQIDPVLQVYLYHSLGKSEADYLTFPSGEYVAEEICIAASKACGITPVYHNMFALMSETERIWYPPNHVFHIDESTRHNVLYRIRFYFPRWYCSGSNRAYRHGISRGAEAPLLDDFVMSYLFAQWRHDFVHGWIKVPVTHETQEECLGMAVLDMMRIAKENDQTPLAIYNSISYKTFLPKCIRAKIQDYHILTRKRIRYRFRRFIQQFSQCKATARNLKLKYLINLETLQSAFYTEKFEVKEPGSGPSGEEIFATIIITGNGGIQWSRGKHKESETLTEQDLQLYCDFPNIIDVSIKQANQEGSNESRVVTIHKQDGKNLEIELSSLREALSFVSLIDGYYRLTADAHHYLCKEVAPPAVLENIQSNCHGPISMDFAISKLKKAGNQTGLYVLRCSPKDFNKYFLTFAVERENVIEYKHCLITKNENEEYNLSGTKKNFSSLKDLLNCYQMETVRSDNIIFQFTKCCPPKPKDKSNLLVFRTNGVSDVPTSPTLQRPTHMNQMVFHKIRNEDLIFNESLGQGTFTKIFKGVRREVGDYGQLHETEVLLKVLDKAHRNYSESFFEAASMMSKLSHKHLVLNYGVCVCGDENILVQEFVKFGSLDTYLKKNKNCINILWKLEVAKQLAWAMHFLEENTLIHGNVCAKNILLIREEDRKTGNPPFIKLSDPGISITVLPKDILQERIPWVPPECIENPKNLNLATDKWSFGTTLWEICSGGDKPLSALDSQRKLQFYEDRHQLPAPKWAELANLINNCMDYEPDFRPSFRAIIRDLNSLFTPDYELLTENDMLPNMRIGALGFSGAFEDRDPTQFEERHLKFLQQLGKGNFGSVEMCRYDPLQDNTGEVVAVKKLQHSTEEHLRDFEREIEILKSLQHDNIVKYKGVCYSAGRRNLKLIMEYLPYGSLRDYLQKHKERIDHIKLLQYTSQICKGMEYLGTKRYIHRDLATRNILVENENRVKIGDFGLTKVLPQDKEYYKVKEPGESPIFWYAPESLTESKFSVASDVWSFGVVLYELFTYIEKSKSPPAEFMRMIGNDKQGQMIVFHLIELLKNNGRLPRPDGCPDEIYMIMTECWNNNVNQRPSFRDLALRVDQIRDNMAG

Row | SMILES | IC50 (JAK1) [nM] | JAK2/JAK1 (JAK1) | IC50 (JAK2) [nM] | IC50 (JAK3) [nM]
1 | COCCOc1nsc(NC(=O)N2C[C@H]3C[C@H](N(C)c4c(C#N)cnc5[nH]ccc45)C[C@H]3C2)n1 [Compound H51, (3aR,5S,6aS)-5-((5-cyano-1H-pyrrolo[2,3-b]pyridin-4-yl)(methyl)amino)-N-(3-(2-methoxyethoxy)-1,2,4-thiadiazole-5-yl)hexahydrocyclopenta[c]pyrrole-2(1H)-carboxamide] | 6.89 | 4.49 | 30.9 | 101
2 | CN(c1c(C#N)cnc2[nH]ccc12)[C@H]1C[C@@H]2CN(C(=O)Nc3nc(C4CC4)no3)C[C@@H]2C1 [Compound H32, (3aR,5s,6aS)-4-({2-[(3-cyclopropyl-1,2,4-oxadiazole-5-yl)carbamoyl]-hexahydrocyclopenta[c]pyrrole-5-yl}-methyl-amino)-1H-pyrrolo[2,3-b]pyridin-5-carbonitrile] | 5 | 2.60 | 13 | 27
3 | COCc1nsc(NC(=O)N2C[C@H]3C[C@H](Nc4c(C#N)cnc5[nH]ccc45)C[C@H]3C2)n1 [Compound H57] | 0.89 | 7.19 | 6.4 | 48
4 | N#Cc1cnc2[nH]ccc2c1N[C@H]1C[C@@H](NS(=O)(=O)c2ccc(C(F)(F)F)cc2)C1 [Compound H17, (cis)-4-{[3-(4-trifluoromethylbenzenesulfonamido)-cyclobutyl-1-yl]-amino}-1H-pyrrolo[2,3-b]pyridin-5-carbonitrile] | 5 | 2.60 | 13 | 27
5 | CN(c1c(C#N)cnc2[nH]ccc12)[C@H]1C[C@@H]2CN(S(=O)(=O)c3cccc(F)c3)C[C@@H]2C1 [Compound H28] | 9.5 | 14.21 | 135 | 220
6 | N#Cc1cnc2[nH]ccc2c1N[C@H]1C[C@@H]2CN(C(=O)Nc3nc(C4CC4)ns3)C[C@@H]2C1 [Compound H49, (3aR,5s,6aS)-5-((5-cyano-1H-pyrrolo[2,3-b]pyridin-4-yl)amino)-N-(3-cyclopropyl-1,2,4-thiadiazole-5-yl)hexahydrocyclopentadiene[c]pyrrole-2(1H)-carboxamide] | 5.43 | 2.76 | 15 | 178
7 | CNCC1CCN(S(=O)(=O)C[C@H]2CC[C@H](N(C)c3c(C#N)cnc4[nH]ccc34)CC2)C1 (stereo partly drawn) [Compound H67, 4-(methyl-(trans-4-(((3-((methylamino)methyl)pyrrolidin-1-yl)sulfonyl)methyl)cyclohexyl)amino)-1H-pyrrolo[2,3-b]pyridin-5-carbonitrile] | 0.67 | 14.18 | 9.5 | 76
8 | CN(C)Cc1nsc(NC(=O)N2C[C@H]3C[C@H](Nc4c(C#N)cnc5[nH]ccc45)C[C@H]3C2)n1 [Compound H55, (3aR,5s,6aS)-5-((5-cyano-1H-pyrrole[2,3-b]pyridin-4-yl)amino)-N-(3-((dimethylamino)methyl)-1,2,4-thiadiazole-5-yl)hexahydrocyclopenta[c]pyrrole-2(1H)-carboxamide] | 2.59 | 6.83 | 17.7 | 253
9 | N#Cc1cnc2[nH]ccc2c1N[C@H]1C[C@@H](NS(=O)(=O)c2cccc(C(F)(F)F)c2)C1 [Compound H13, (cis)-4-{[3-(3-(trifluoromethyl)benzenesulfonamido)-cyclobutyl-1-yl]-amino}-1H-pyrrolo[2,3-b]pyridin-5-carbonitrile] | 2.96 | 7.09 | 21 | 58.9
10 | CN(c1c(C#N)cnc2[nH]ccc12)[C@H]1C[C@@H]2CN(C(=O)Nc3nc(OCC(C)(C)O)ns3)C[C@@H]2C1 [Compound H45, (3aR,5s,6aS)-5-((5-cyano-1H-pyrrolo[2,3-b]pyridin-4-yl)(methyl)amino)-N-(3-(2-hydroxy-2-methyl-propoxy)-1,2,4-thiadiazole-5-yl)hexahydrocyclopentadiene[c]pyrrole-2(1H)-carboxamide] | 5.9 | 8.47 | 50 | 77
11 | CN(c1c(C#N)cnc2[nH]ccc12)C1CC(NS(=O)(=O)c2ccc(C(F)(F)F)cc2)C1 (stereo not drawn) [Compound H16, (cis)-4-{[3-(4-trifluoromethylbenzenesulfonamido)-cyclobutyl-1-yl]-methyl-amino}-1H-pyrrolo[2,3-b]pyridin-5-carbonitrile] | 9.16 | 14.41 | 132 | 633
12 | CC[C@@H]1CC(NC(=O)Nc2nc(OC)ns2)C[C@@H]1Nc1c(C#N)cnc2[nH]ccc12 (stereo partly drawn) [Compound H61, 1-((3S,4R)-3-((5-cyano-1H-pyrrolo[2,3-b]pyridin-4-yl)amino)-4-ethylcyclopentyl)-3-(3-methoxy-1,2,4-thiadiazole-5-yl)urea] | 8.23 | 15.31 | 126 | 589

Results, then the compound that gave them:

Row | IC50 (JAK1) [nM] | JAK2/JAK1 (JAK1) | IC50 (JAK2) [nM] | IC50 (JAK3) [nM] | SMILES
13 | 0.76 | 7.51 | 5.71 | 68 | N#Cc1cn2c(n1)CC(Nc1c(C#N)cnc3[nH]ccc13)CC2 (stereo not shown) [Compound H90, 7-((5-cyano-1H-pyrrolo[2,3-b]pyridin-4-yl)amino)-5,6,7,8-tetrahydroimidazo[1,2-a]pyridin-2-carbonitrile]
14 | 10.3 | 2.82 | 29 | 75 | N#Cc1cnc2[nH]ccc2c1N[C@H]1CN(C(=O)NCC(F)(F)F)CC12CC2 [Compound H72, (R)-7-((5-cyano-1H-pyrrolo[2,3-b]pyridin-4-yl)amino)-N-(2,2,2-trifluoroethyl)-5-azaspiro[2.4]heptane-5-carboxamide]
15 | 0.92 | 20.33 | 18.7 | 96 | O=C(NCC(F)(F)F)N1C[C@H](Nc2c(C(F)(F)F)cnc3[nH]ccc23)[C@H](C2CC2)C1 (relative stereo) [Compound H91, (cis)-3-cyclopropyl-N-(2,2,2-trifluoroethyl)-4-((5-(trifluoromethyl)-1H-pyrrolo[2,3-b]pyridin-4-yl)amino)pyrrolidin-1-carboxamide]
16 | 9.3 | 12.58 | 117 | 162 | CC[C@@H]1CN(C(=O)CCC#N)C[C@@H]1Nc1c(C#N)cnc2[nH]ccc12 (relative stereo) [Compound H81, 4-(((cis)-1-(3-cyanopropionyl)-4-ethylpyrrolidin-3-yl)amino)-1H-pyrrolo[2,3-b]pyridin-5-carbonitrile]
17 | 5.1 | 8.82 | 45 | 73 | CCC1CN(C(=O)NCC(F)F)CC1Nc1c(C#N)cnc2[nH]ccc12 (stereo not shown) [Compound H87, 3-((5-cyano-1H-pyrrolo[2,3-b]pyridin-4-yl)amino)-N-(2,2-difluoroethyl)-4-ethylpyrrolidin-1-carboxamide]
18 | 0.95 | 8.21 | 7.8 | 91 | CC[C@@H]1CN(S(=O)(=O)CCC(F)(F)F)C[C@@H]1Nc1c(C#N)cnc2[nH]ccc12 (relative stereo) [Compound H76, 4-(((cis)-4-ethyl-1-((3,3,3-trifluoropropyl)sulfonyl)pyrrolidin-3-yl)amino)-1H-pyrrolo[2,3-b]pyridin-5-carbonitrile]
19 | 6 | 2.67 | 16 | 42 | CCC1CN(C(=O)CC#N)CC1Nc1c(C#N)cnc2[nH]ccc12 (stereo not shown) [Compound H78, 4-((4-ethyl-1-(2-cyanoacetyl)pyrrolidin-3-yl)amino)-1H-pyrrolo[2,3-b]pyridin-5-carbonitrile]
20 | 6.9 | 5.51 | 38 | 387 | CC[C@@H]1CN(C(=O)NC2CC2)C[C@@H]1Nc1c(C#N)cnc2[nH]ccc12 (relative stereo) [Compound H84, (cis)-3-((5-cyano-1H-pyrrolo[2,3-b]pyridin-4-yl)amino)-N-cyclopropyl-4-ethylpyrrolidin-1-carboxamide]
21 | 0.81 | 9.01 | 7.3 | 90 | CN(c1c(C#N)cnc2[nH]ccc12)[C@H]1CC[C@H](CS(=O)(=O)N2CCC(CO)C2)CC1 (stereo partly drawn) [Compound H69, 4-((trans-4-(((3-(hydroxymethyl)pyrrolidin-1-yl)sulfonyl)methyl)cyclohexyl)(methyl)amino)-1H-pyrrolo[2,3-b]pyridin-5-carbonitrile]
22 | 0.64 | 11.09 | 7.1 | 79 | CC[C@@H]1CN(C(=O)NCC#N)C[C@@H]1Nc1c(C(F)(F)F)cnc2[nH]ccc12 [Compound H93, (cis)-3-ethyl-N-(cyanmethyl)-4-((5-(trifluoromethyl)-1H-pyrrolo[2,3-b]pyridin-4-yl)amino)pyrrolidin-1-carboxamide]
